Activity calls are given as the source filed them.
Columns and labels:
Protein Rev = Protein Rev (Human immunodeficiency virus type 1 group M subtype B (isolate HXB2)(HIV-1), UniProt P04618); assay: blockers of HIV Rev/RRE RNA complex – biochemical, fluorescence polarization, HIV-1, dose response (AID 434976); parameters: species or system Human immunodeficiency virus 1
[1] = biological target: Female germline-specific tumor suppressor gld-1 (Caenorhabditis elegans, UniProt Q17339); assay: blockers of GLD-1/TGE RNA complex formation – biochemical, fluorescence polarization, C. elegans, dose response (AID 2802);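 note: fluorescence polarization of labeled TGE RNA bound by purified gld-1 protein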
[2] = luciferase reporter signal suppression in cells – H4 neuroglioma cells, luminescence, dose response (AID 1990); format: functional, cell-based
HEK293 [3] = assay: inhibition of NOD1-driven NF-kB reporter – cell-based, luminescence, uHTS, primary screen (AID 1578); format: functional; conditions: Homo sapiens
[4] = test system: Streptococcus sp. 'group A'; assay: Streptococcus pyogenes SK(-)GAS viability under kanamycin – luminescence, BacTiterGlo, confirmation, counter-screen for streptokinase expression inhibitor project, dose response (AID 1900); format: functional, organism-based
HEK293 [5] = assay: cells; format: functional, cell-based; conditions: Homo sapiens
[6] = A Cell Based Secondary Assay To Explore Cytotoxicity of Compounds that Sensitize Mycobacterium Tuberculosis to Beta-Lactam Antibiotics.; format: functional
[7] = Luminescence Cell-Based Dose Response HTS to Identify Inhibitors of 5'UTR Stem-Loop Driven Prion Protein mRNA Translation in H4 Neuroglioblastoma Cells. [Related pubchem assays: 1827 (Project Summary), 1813 (Primary HTS)]; format: functional
[8] = alpha-synuclein stem-loop luciferase translation blockers – H4 neuroglioma cells, luminescence, confirmation (AID 1988); format: functional, cell-based
HEK293 [9] = assay: cells; format: functional, cell-based; conditions: Homo sapiens; remark: listed apart in the source
[10] = biological target: Nucleotide-binding oligomerization domain-containing protein 2 (Homo sapiens, UniProt Q9HC29); assay: inhibition of NOD2-driven NF-kB reporter – cell-based, luminescence, uHTS, HEK293 (AID 1566); format: functional
HEK293 [11] = assay: NOD2 signaling inhibitors in MDP-stimulated cells, cell-based, uHTS, luminescence (AID 2001); format: functional; conditions: Homo sapiens
HEK293 [12] = assay: cells; format: functional, cell-based; conditions: Homo sapiens; remark: listed apart in the source
[13] = biological target: T1, Kappa-type opioid receptor (Homo sapiens, UniProt P41145); format: functional
Beta-galactosidase = Beta-galactosidase (Escherichia coli, UniProt Q8VNN2); format: functional
[14] = biological target: T1, Kappa-type opioid receptor; format: functional; remark: listed apart in the source
Streptococcus = assay: GAS UMAA2166 growth inhibition – luminescence, BacTiterGlo, counter-screen for streptokinase expression inhibitor project, dose response (AID 1915); format: functional, organism-based;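 note: potency for reduction of bacterial viability or growth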
Nonstructural protein 1 = Nonstructural protein 1 (Influenza A virus, UniProt Q194T2); format: functional, Influenza A virus (A/California/07/2009(H1N1))
Vero [15] = assay: cells; format: functional, cell-based, Chlorocebus sabaeus; conditions: Chlorocebus sabaeus, Vero
INS1 = assay: INS-1E survival protection against cytokine death – cell-based, luminescence, retest, dose response (AID 449756); format: functional; conditions: Rattus norvegicus;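 note: cell death triggered by IL-1 beta plus TNF-alpha plus IFN-gamma mixture; protective hits raise ATP signal compared with cytokine alone wells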
Vero [16] = assay: cells; format: functional, Chlorocebus sabaeus; conditions: Chlorocebus sabaeus, Vero
Kallikrein-7 = Kallikrein-7 (Homo sapiens, UniProt P49862); assay: Fluorescence Intensity-based biochemical primary high throughput dose response assay to identify activators of kallikrein-7 (K7) zymogen.
Mu-type opioid receptor = Mu-type opioid receptor (Homo sapiens, UniProt P35372); assay: SAR Analysis of Antagonists of the MOR Receptor using an Image-Based Assay - Set 3. [Related pubchem assays (depositor defined):AID1777, AID1785, AID1786, AID1966, AID2133, AID2136, AID2284, AID2285, AID2420]; format: functional
[17] = biological target: Delta-type opioid receptor (Homo sapiens, UniProt P41143); assay: SAR Analysis of Antagonists of the DOR Receptor using an Image-Based Assay - Set 3. [Related pubchem assays (depositor defined):AID1777, AID1785]; format: functional;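 note: U2OS cells expressing DOR1 and beta-arrestin GFP stimulated with 100 nM SNC80; imaging of GFP-tagged beta-arrestin moving into spots after receptor activation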
[18] = biological target: T1, Kappa-type opioid receptor; assay: SAR analysis of small molecule antagonists of the kappa opioid receptor via a luminescent beta-arrestin assay - Set 3. [Related pubchem assays (depositor defined):AID1777, AID1778, AID1785, AID1786, AID1966, AID2133, AID2136, AID2285, AID2495]; format: functional
[19] = biological target: T1, Kappa-type opioid receptor; assay: SAR analysis of Antagonists of the Kappa Opioid Receptor (KOR) using an Image-Based Assay - Set 3. [Related pubchem assays (depositor defined):AID1777, AID1785]; format: functional
[20] = biological target: Melanin-concentrating hormone receptor 1 (Homo sapiens, UniProt Q99705); assay: Late-stage fluorescence-based counterscreen for antagonists of the G-protein coupled receptor 7 (GPR7): cell-based dose response assay to identify antagonists of the melanin-concentrating hormone receptor 1 (MCHR1). [Related pubchem assays (depositor defined):AID1861, AID1880, AID1952, AID2148, AID2251, AID2257, AID485339]; format: functional;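 note: stimulated with 30 nM MCH peptide agonist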
[21] = biological target: T2, E3 ubiquitin-protein ligase XIAP (Homo sapiens, UniProt P98170); assay: Counter Screen using XIAP-Bir3 for Chemical Antagonists of Bir1/2 domains of IAP-family anti-apoptotic proteins. [Related pubchem assays (depositor defined):AID1018, AID1449, AID1514, AID1638, AID1749, AID1750, AID488957, AID488963]
[22] = biological target: T2, E3 ubiquitin-protein ligase XIAP; assay: small molecules displacing peptide from XIAP – biochemical, IAP family, fluorescence polarization (AID 1018); format: functional
Hexokinase = Hexokinase (Trypanosoma brucei, UniProt Q38C41); assay: Confirmation assay for inhibitors of Trypanosoma brucei hexokinase 1-Analogue-first series. [Related pubchem assays (depositor defined):AID1430, AID1632, AID2516, AID2560, AID2579, AID2600, AID449725, AID492951]; format: functional
Sequence of Hexokinase (Q38C41 whole entry): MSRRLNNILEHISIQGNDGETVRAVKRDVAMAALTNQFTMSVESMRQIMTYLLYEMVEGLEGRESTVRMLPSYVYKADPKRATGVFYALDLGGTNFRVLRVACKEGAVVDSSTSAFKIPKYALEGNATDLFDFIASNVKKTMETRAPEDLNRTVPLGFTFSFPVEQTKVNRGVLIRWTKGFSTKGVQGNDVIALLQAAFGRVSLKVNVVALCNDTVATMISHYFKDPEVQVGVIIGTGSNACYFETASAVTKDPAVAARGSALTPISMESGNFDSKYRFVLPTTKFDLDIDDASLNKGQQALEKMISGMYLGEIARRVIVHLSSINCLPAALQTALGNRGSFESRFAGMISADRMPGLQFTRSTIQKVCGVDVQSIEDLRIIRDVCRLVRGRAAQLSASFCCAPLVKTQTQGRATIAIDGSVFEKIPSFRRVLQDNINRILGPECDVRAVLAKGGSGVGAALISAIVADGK

T2 sequence (P98170 whole entry): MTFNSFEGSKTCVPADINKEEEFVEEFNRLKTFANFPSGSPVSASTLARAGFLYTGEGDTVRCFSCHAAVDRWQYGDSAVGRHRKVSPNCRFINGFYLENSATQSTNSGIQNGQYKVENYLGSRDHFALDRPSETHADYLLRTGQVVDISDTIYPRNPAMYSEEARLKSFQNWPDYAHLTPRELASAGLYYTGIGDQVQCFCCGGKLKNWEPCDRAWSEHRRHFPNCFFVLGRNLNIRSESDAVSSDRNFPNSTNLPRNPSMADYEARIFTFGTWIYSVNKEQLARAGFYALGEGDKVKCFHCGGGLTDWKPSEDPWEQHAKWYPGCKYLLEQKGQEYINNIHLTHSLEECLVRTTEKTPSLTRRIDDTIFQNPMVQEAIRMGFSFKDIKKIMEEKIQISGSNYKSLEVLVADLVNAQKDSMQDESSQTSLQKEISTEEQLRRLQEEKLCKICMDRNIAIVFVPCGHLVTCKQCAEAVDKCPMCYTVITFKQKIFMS
T1 sequence (P41145 whole entry): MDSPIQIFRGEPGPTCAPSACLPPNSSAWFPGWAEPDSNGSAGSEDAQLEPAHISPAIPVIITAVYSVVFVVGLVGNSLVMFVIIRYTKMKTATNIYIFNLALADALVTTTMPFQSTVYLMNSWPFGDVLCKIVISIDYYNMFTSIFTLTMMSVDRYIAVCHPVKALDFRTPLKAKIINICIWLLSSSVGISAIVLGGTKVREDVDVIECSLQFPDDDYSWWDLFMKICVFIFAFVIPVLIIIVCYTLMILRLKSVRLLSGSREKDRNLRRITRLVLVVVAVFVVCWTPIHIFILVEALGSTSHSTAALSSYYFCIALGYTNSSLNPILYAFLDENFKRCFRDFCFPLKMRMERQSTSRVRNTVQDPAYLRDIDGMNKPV
Sequence of Female germline-specific tumor suppressor gld-1 (Q17339 whole entry): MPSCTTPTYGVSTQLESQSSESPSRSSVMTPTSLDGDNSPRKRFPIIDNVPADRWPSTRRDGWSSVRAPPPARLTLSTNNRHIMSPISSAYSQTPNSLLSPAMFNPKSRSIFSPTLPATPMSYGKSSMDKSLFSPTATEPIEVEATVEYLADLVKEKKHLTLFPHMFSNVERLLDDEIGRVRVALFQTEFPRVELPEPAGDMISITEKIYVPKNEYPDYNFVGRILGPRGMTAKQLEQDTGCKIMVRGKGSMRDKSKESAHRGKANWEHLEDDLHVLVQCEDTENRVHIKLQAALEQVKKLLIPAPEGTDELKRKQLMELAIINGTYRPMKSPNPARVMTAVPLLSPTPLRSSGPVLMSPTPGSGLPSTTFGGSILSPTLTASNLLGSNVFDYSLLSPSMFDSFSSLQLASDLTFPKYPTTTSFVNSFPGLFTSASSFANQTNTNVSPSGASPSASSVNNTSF
Sequence of Protein Rev (P04618 whole entry): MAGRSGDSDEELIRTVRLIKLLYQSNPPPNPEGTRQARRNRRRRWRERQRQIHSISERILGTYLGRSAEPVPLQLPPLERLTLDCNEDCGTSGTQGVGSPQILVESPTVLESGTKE
Sequence of Melanin-concentrating hormone receptor 1 (Q99705 whole entry): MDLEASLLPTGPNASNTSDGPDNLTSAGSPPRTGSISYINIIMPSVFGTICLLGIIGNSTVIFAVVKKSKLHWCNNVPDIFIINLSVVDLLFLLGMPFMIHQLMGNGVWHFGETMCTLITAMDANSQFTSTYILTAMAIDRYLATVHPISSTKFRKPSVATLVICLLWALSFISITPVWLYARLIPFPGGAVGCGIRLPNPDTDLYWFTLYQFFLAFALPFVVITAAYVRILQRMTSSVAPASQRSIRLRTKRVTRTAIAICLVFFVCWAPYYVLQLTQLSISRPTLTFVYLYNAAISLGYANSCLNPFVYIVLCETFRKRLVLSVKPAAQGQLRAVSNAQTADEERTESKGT
Sequence of Delta-type opioid receptor (P41143 whole entry): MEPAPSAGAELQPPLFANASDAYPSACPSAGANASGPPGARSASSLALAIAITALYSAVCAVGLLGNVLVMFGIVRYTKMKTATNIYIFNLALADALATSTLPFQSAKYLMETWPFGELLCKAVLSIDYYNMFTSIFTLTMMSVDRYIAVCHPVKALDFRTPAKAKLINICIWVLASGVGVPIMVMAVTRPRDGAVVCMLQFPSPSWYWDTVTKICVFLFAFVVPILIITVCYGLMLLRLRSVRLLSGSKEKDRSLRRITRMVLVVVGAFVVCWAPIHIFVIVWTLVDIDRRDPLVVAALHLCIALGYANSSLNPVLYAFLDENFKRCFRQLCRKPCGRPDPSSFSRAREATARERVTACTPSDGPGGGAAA
Sequence of Nonstructural protein 1 (Q194T2 whole entry): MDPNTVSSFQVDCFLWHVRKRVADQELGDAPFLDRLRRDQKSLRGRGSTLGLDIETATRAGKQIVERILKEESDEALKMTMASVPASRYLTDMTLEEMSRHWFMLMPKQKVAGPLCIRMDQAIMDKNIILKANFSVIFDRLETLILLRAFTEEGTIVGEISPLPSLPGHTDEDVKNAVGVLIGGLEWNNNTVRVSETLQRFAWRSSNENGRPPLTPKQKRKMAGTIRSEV
Sequence of Kallikrein-7 (P49862 whole entry): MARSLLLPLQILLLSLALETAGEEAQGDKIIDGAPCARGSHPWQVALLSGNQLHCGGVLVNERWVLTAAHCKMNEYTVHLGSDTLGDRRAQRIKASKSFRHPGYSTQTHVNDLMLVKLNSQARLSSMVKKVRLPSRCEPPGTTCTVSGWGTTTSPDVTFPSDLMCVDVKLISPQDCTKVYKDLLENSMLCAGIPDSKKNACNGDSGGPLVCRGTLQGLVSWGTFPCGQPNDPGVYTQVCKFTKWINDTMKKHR
Sequence of Beta-galactosidase (Q8VNN2 whole entry): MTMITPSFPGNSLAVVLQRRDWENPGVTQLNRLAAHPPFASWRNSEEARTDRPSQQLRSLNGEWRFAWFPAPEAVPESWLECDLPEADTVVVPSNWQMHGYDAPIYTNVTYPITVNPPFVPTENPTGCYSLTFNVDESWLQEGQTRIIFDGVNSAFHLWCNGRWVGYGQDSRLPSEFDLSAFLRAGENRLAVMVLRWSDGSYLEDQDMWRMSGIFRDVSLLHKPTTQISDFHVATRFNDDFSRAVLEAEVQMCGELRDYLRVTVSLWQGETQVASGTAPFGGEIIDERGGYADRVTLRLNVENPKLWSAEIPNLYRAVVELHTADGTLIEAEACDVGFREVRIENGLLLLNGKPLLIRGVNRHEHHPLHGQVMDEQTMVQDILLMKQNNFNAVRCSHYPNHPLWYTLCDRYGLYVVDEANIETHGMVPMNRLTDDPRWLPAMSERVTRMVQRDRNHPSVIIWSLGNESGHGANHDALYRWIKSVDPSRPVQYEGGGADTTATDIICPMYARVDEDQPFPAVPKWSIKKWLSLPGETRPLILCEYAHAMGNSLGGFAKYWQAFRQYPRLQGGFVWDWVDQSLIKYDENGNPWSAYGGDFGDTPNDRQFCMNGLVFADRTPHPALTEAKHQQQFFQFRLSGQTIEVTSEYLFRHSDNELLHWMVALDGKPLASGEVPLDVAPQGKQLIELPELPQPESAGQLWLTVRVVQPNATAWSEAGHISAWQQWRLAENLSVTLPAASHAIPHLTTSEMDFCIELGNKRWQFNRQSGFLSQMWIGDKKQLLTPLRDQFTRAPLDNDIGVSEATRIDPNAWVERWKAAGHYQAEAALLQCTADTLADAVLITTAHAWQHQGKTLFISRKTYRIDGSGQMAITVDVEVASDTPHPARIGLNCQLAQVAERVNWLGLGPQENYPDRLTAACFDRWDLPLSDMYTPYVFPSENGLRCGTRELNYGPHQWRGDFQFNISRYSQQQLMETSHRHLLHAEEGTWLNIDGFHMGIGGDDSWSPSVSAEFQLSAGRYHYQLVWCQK
Sequence of Mu-type opioid receptor (P35372 whole entry): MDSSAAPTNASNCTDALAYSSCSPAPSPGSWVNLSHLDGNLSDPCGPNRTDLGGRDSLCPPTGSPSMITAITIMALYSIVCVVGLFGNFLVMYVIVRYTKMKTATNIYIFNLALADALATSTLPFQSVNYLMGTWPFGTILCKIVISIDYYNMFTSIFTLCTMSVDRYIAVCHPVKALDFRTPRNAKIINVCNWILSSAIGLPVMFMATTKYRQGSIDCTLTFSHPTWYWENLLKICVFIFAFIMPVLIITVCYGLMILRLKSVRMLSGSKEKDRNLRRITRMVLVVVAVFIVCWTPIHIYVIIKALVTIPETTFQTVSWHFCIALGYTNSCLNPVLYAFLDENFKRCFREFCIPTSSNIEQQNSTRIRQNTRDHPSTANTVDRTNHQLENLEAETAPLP

## CCOC(=O)c1cc2c(ccn2C)n1CC(=O)N1CCN(c2cccc(C(F)(F)F)c2)CC1
Protein Rev
  IC50: > 75.4 µM (not active)
[1]
  IC50: > 6.63 µM (active)

## C/C(=N\NC(=O)c1cc(Br)ccc1O)c1ccccn1
[2]
  EC50: 10.2 µM (inconclusive)
HEK293 [3]
  EC50: > 20 µM (inactive)
[4]
  EC50: 0.43 µM (active)
HEK293 [5]
  IC50: 17.6 µM (active)
[6]
  CC50: 3.47 µM (active)
[7]
  EC50: 10.3 µM (active)
[8]
  EC50: 5.29 µM (active)
HEK293 [9]
  IC50: > 20 µM (inactive)
[10]
  EC50: > 20 µM (inactive)
HEK293 [11]
  IC50: 6.47 µM (inactive)
HEK293 [12]
  IC50: > 20 µM (inactive)
[13]
  IC50: 3.54 µM (active)
Beta-galactosidase
  EC50: > 31.5 µM (inactive)
[14]
  IC50: > 32 µM
Streptococcus
  EC50: 3.7 µM (active)
Nonstructural protein 1
  IC50: 30.4 µM (active)
Vero [15]
  IC50: > 25 µM (active)
INS1
  AC50: 1.74 µM (active)
Vero [16]
  CC50: 3.81 µM (active)

## CC(=O)N1CCN(C2=Nc3cccc4cccc2c34)CC1
Protein Rev
  IC50: 15.8 µM (not active)
[1]
  IC50: 7.57 µM (active)
Kallikrein-7
  EC50: 36.7 µM (inactive)

## COc1ccc(S(=O)(=O)NCc2ccc(C(=O)NCCN3Cc4ccccc4C3)cc2)cc1
Mu-type opioid receptor
  IC50: > 32 µM (inactive)
[17]
  IC50: > 32 µM (inactive)
[18]
  IC50: > 20 µM (inactive)
[19]
  IC50: > 32 µM (inactive)

## C=Cc1cnn(-c2ccc(C(C)C)cc2)c(=O)c1Oc1ccc(OC)cc1
[20]
  IC50: 3.9 µM (active)

## COc1ccc(CCC(=O)OCC(=O)Nc2ccc(C)c(S(=O)(=O)N(C)C)c2)cc1
[21]
  IC50: > 100 µM (inactive)
[22]
  IC50: > 100 µM (not active)

## O=C(Cn1sc2ccccc2c1=O)NC1CCCCC1
Hexokinase
  IC50: 9.35 µM (active)

## O=C(O)C1C2C=CC(C2)C1C(=O)Nc1ccc(C(=O)N2CCCCC2)cc1 (centres undefined)
[21]
  IC50: > 100 µM (inactive)
[22]
  IC50: > 100 µM (not active)
